Assay results: patent US8975232B2, “Macrocyclic kinase inhibitors and uses thereof” (President and Fellows of Harvard College, priority 2010, dated 2015)
Read-outs that look alike come from different tables or passages of the source.

Experiments:
DYRK3 = DYRK3 (Homo sapiens, UniProt O43781); experiment: SelectScreen kinase profiling; format: biochemical; conditions: 5 μM
Protocol: (§1) Src IC50 determinations and single-point inhibition measurements were performed using Invitrogen's Z′-LYTE Tyr 02 assay kit according to the manufacturer's protocols. All kinase assays were performed at ATP concentrations near KM,ATP values, except where noted otherwise. Active human Src kinase was obtained from Millipore. For kinome profiling and IC50 determinations against non-Src kinases, compounds were submitted to Invitrogen's SelectScreen Kinase Profiling Service.

MAPK14 (p38 alpha) = MAPK14 (p38 alpha) (Homo sapiens, UniProt Q16539); experiment: SelectScreen kinase profiling; format: biochemical; conditions: 5 μM
Protocol: as §1

BLK = BLK (Homo sapiens, UniProt P51451); experiment: SelectScreen kinase profiling; format: biochemical; conditions: 5 μM
Protocol: as §1

PAK4 = PAK4 (Homo sapiens, UniProt O96013); experiment: SelectScreen kinase profiling; format: biochemical; conditions: 5 μM
Protocol: as §1

FLT3 = FLT3 (Homo sapiens, UniProt P36888); experiment: SelectScreen kinase profiling; format: biochemical; conditions: 5 μM
Protocol: as §1

FRK (PTK5) = FRK (PTK5) (Homo sapiens, UniProt P42685); experiment: SelectScreen kinase profiling; format: biochemical; conditions: 5 μM
Protocol: as §1

AKT1 (PKB alpha) = AKT1 (PKB alpha) (Homo sapiens, UniProt P31749); experiment: SelectScreen kinase profiling; format: biochemical; conditions: 5 μM
Protocol: as §1

AURKA (Aurora A) = molecular target: T1, AURKA (Aurora A) (Homo sapiens, UniProt O14965); experiment: SelectScreen kinase profiling; format: biochemical; conditions: AURKA (Aurora A); 5 μM
T1 sequence (O14965 1-403): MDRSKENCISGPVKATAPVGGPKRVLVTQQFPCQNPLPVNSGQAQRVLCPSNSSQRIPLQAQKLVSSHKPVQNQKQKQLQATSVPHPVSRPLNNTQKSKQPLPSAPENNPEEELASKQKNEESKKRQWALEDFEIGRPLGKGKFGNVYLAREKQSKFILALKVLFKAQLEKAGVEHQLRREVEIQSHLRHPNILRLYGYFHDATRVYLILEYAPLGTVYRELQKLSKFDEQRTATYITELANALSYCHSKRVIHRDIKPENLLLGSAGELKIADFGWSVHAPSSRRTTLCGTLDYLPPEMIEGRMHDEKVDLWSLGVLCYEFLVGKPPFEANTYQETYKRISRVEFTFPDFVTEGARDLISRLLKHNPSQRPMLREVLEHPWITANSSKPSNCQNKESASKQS
Protocol: as §1

MET (cMet) = MET (cMet) (Homo sapiens, UniProt P08581); experiment: SelectScreen kinase profiling; format: biochemical; conditions: 5 μM
Protocol: as §1

JAK3 = JAK3 (Homo sapiens, UniProt P52333); experiment: SelectScreen kinase profiling; format: biochemical; conditions: 5 μM
Protocol: as §1

GSK3B (GSK3 beta) = GSK3B (GSK3 beta) (Homo sapiens, UniProt P49841); experiment: SelectScreen kinase profiling; format: biochemical; conditions: 5 μM
Protocol: as §1

IGF1R = IGF1R (Homo sapiens, UniProt P08069); experiment: SelectScreen kinase profiling; format: biochemical; conditions: 5 μM
Protocol: as §1

RPS6KA3 (RSK2) = RPS6KA3 (RSK2) (Homo sapiens, UniProt P51812); experiment: SelectScreen kinase profiling; format: biochemical; conditions: 5 μM
Protocol: as §1

ABL1 = ABL1 (Homo sapiens, UniProt P00519); experiment: SelectScreen kinase profiling; format: biochemical; conditions: ABL1; 5 μM
Protocol: as §1

YES1 = YES1 (Homo sapiens, UniProt P07947); experiment: SelectScreen kinase profiling; format: biochemical; conditions: 5 μM
Protocol: as §1

AURKC (Aurora C) = AURKC (Aurora C) (Homo sapiens, UniProt Q9UQB9); experiment: SelectScreen kinase profiling; format: biochemical; conditions: 5 μM
Protocol: as §1

Src kinase domain = molecular target: T2, Src kinase domain (Gallus gallus, UniProt P00523); experiment: Fluorescence anisotropy binding assay; design: species or system chicken; conditions: fluorescein-labeled macrocycle, read-out: dissociation constant (KD)
T2 construct: chicken c-Src (residues 251-533 and residues 83-533); made in house
Protocol: The change in fluorescence anisotropy of fluorescein-labeled MC1, MC4 and MC9 at 518 nm upon excitation at 492 nm was monitored with a HORIBA Jobin Yvon FluoroMax-4 (Edison, N.J.) spectrofluorimeter. Kinase was titrated to 0.5 μM of the fluorescently labeled macrocycle in 100 mM Tris pH 8.0, 10 mM MgCl2 at 25° C. After equilibration, the increase in the fluorescence anisotropy of the fluorescently labeled ligand was recorded and fitted against a quadratic binding equation in Kaleidagraph (Synergy Software, Reading Pa.) to yield the dissociation constant KD.
To clarify the inhibitory mechanism of the compounds further, the binding affinity of fluorescently labeled MC1, MC4, and MC9 to Src kinase domain was determined in a fluorescence anisotropy assay (FIG. 21).

Lck = molecular target: T3, Lck (Mus musculus, UniProt P06240); experiment: Continuous spectrophotometric kinase activity assay; format: biochemical, murine
T3 construct: murine Lck (residues 227-509); made in house
From the text: (§2) Kinase domain constructs of human c-Abl (residues 229-512), chicken c-Src (residues 251-533 and residues 83-533), murine Lck (residues 227-509), and human Hck (residues 166-445) were expressed as previously described (Seeliger, Young et al. 2005; Seeliger, Nagar et al. 2007; the entire contents of each of which are incorporated by reference herein). Mutations were introduced into chicken c-Src (residues 251-533) (T338I, C277Q, L297M) by site-directed mutagenesis and verified by DNA sequencing.
In vitro kinase inhibition assays were performed using either a continuous spectrophotometric assay or a FRET-based endpoint assay.
The original characterization of kinase inhibition was performed with a commercial kinase assay that relies on a fluorescently labeled peptide kinase substrate (Z-LYTE, Invitrogen). For further characterization, a continuous spectrophotometric kinase activity assay was employed that is easily adapted to different substrate peptides as well as a wider range of peptide and ATP concentrations.

[1] = system: panel of 44 human kinases; experiment: Kinase selectivity panel at 5 μM, Invitrogen SelectScreen; format: biochemical; conditions: includes all nine Src-family kinases
Protocol: as §1

Src Thr338Ile = experiment: Inhibition of Src gatekeeper mutant; format: biochemical, chicken
From the text: as §2
For the FRET-based endpoint assay, kinase assays were performed using Invitrogen's Z′-LYTE kinase assay using the Tyr 02 substrate peptide (based upon the optimal Abl substrate peptide […]) according to the manufacturer's instructions. Assays were performed at near KM ATP concentrations for full-length c-Src and full-length c-Src T338I-50 μM and 7 μM, respectively.

T3 sequence (P06240 227-509): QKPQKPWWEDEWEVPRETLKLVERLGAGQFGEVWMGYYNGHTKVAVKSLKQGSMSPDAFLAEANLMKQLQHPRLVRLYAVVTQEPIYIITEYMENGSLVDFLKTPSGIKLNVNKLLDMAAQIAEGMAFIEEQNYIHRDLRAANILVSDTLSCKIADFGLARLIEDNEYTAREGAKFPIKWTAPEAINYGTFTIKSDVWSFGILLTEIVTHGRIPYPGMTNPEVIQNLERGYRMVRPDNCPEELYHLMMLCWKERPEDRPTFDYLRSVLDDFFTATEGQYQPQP
JAK3, sequence (P52333 whole entry): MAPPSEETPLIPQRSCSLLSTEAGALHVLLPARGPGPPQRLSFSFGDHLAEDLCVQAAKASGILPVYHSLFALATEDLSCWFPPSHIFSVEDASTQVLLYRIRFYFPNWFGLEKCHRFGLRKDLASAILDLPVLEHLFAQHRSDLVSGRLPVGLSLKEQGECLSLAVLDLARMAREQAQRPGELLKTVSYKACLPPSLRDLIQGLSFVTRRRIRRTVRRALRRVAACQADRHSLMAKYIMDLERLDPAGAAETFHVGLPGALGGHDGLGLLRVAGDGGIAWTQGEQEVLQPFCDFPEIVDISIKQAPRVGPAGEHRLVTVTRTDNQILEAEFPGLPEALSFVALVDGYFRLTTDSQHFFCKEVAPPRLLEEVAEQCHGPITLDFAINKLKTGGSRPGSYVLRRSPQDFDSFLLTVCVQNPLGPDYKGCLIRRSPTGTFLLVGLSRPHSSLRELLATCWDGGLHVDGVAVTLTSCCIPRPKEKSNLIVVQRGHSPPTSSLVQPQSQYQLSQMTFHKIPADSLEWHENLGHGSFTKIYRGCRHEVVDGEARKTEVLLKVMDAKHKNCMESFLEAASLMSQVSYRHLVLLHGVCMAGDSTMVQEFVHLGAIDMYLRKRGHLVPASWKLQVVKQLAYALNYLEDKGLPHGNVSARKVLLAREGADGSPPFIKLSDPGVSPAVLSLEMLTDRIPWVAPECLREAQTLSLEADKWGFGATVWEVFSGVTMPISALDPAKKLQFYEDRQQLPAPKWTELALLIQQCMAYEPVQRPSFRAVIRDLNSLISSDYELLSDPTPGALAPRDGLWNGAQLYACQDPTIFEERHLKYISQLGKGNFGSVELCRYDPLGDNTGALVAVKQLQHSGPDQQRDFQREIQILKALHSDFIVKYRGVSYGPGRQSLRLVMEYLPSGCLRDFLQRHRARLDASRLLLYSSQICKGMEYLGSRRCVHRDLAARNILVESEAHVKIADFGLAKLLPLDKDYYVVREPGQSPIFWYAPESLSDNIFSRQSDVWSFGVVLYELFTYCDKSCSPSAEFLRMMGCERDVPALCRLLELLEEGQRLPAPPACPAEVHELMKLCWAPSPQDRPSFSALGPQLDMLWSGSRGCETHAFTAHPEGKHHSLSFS
AKT1 (PKB alpha), sequence (P31749 whole entry): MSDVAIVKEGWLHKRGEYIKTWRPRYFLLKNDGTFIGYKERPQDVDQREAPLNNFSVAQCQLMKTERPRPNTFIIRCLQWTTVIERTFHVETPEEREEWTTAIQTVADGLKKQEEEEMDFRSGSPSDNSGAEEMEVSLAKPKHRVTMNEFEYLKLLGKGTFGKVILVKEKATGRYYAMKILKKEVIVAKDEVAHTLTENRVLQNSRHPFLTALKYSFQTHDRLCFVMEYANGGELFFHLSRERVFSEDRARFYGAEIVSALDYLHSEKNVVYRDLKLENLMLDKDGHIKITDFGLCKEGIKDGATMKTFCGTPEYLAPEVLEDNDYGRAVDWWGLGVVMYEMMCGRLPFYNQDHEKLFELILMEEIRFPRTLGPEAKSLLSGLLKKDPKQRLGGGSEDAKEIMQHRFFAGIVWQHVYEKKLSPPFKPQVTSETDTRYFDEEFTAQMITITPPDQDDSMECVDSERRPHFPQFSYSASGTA
YES1, sequence (P07947 whole entry): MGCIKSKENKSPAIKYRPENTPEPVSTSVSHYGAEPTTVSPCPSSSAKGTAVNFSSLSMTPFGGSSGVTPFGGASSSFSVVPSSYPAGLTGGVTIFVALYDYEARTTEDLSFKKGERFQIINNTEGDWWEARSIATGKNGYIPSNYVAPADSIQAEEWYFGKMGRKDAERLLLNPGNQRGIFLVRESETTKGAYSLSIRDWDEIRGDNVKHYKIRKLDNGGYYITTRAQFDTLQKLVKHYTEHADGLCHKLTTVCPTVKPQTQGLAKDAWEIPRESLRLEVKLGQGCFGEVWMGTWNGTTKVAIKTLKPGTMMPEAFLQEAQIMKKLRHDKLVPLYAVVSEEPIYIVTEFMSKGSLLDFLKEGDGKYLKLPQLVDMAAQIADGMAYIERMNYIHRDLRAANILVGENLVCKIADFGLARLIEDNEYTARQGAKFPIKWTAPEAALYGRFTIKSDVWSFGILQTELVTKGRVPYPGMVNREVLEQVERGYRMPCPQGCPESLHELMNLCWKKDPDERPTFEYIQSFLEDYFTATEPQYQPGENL
PAK4, sequence (O96013 whole entry): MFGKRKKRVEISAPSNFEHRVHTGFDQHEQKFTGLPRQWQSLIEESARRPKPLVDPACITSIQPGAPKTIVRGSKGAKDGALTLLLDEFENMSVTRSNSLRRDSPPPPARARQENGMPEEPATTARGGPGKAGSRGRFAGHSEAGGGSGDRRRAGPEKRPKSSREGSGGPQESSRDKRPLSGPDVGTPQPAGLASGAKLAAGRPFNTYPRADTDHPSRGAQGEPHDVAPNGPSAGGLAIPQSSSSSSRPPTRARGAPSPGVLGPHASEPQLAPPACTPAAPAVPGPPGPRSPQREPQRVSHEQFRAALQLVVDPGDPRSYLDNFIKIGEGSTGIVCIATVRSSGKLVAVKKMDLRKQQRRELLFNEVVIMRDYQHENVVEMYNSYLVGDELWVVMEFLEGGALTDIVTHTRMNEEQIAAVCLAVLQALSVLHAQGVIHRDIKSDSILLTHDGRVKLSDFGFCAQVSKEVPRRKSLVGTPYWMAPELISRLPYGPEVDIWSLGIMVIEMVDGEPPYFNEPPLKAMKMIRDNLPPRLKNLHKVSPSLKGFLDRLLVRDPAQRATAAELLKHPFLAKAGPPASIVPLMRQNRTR
MET (cMet), sequence (P08581 25-1390): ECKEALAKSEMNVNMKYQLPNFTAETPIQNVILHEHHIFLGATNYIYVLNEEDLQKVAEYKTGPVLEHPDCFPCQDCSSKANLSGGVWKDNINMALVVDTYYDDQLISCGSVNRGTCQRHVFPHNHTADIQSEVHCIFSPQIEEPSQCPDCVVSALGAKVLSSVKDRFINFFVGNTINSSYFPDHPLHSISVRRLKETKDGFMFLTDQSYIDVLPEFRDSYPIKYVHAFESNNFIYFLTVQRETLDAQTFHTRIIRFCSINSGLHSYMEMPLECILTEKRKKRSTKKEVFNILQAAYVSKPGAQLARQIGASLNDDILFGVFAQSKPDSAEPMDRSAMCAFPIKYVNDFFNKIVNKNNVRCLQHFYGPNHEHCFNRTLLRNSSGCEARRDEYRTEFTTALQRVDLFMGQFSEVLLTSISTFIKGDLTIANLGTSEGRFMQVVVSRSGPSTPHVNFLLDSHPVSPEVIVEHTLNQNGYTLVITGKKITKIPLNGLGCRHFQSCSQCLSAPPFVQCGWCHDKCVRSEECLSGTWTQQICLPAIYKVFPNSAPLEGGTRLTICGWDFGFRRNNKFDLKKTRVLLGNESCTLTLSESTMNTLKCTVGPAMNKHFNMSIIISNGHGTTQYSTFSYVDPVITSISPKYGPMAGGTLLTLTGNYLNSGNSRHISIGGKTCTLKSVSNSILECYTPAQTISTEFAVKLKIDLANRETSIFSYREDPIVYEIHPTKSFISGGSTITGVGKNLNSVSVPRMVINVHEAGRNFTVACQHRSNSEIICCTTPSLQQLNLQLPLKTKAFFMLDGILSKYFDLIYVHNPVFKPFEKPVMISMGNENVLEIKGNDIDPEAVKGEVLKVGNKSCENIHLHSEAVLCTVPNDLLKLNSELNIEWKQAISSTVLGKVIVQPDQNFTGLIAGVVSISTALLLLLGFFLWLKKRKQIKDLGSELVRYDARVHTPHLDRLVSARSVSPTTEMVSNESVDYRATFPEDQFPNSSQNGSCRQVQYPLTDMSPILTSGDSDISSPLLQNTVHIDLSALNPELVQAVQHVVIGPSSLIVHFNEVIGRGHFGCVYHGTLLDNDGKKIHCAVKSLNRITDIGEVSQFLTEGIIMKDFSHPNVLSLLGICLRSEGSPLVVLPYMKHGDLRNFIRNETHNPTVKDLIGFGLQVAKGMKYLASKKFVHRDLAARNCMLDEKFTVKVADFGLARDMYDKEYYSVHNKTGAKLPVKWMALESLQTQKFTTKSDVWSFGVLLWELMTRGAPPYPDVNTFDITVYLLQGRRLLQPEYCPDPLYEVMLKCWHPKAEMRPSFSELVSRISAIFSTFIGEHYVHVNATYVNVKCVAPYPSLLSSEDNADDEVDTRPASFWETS
FRK (PTK5), sequence (P42685 whole entry): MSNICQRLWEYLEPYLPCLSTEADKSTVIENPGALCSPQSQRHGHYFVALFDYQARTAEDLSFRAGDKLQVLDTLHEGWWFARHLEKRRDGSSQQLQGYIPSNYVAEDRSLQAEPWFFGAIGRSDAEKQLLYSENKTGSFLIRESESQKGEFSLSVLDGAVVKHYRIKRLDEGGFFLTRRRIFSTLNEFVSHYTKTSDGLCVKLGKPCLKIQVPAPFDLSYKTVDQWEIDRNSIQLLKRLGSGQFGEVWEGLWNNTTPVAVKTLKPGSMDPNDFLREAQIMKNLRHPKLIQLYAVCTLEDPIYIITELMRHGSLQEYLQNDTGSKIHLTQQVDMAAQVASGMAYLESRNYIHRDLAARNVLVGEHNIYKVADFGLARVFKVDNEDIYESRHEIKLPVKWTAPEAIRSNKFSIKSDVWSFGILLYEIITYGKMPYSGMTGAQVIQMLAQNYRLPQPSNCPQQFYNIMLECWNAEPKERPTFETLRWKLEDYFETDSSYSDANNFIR

SMILES: NC(=O)[C@@H]1CCCNC(=O)[C@H](Cc2ccc([N+](=O)[O-])cc2)NC(=O)[C@H](Cc2ccco2)NC(=O)[C@H](CC2CC2)NC(=O)/C=C/C(=O)N1 [trans-A10-B1-C5-D6]
- % inhibition (DYRK3): 4%
- % inhibition (MAPK14 (p38 alpha)): 32%
- % inhibition (BLK): 10%
- % inhibition (PAK4): −2%
- % inhibition (FLT3): 7%
- % inhibition (FRK (PTK5)): 15%
- % inhibition (AKT1 (PKB alpha)): −7%
- % inhibition (AURKA (Aurora A)): 10%
- % inhibition (MET (cMet)): −8%
- % inhibition (JAK3): −7%
- % inhibition (GSK3B (GSK3 beta)): −6%
- % inhibition (IGF1R): 9%
- % inhibition (RPS6KA3 (RSK2)): −4%
- % inhibition (ABL1): 18%
- % inhibition (YES1): 19%
- % inhibition (AURKC (Aurora C)): 2%
- Kd (Src kinase domain; 250 μM AMP-PNP): 1700 nM
- Kd (Src kinase domain; no competitor): 300 nM
- IC50 (Lck; 5 μM ATP, 100 μM Src optimal peptide): > 100 µM
- IC50 (Lck; 5 μM ATP, 300 μM Src optimal peptide): > 100 µM
- IC50 (Lck; 250 μM ATP, 300 μM Src optimal peptide): > 100 µM
- off-target inhibition in kinase panel (in words) [1]: no significant off-target inhibition
- inhibition of Src Thr338Ile gatekeeper mutant (in words) (Src Thr338Ile): retained their inhibition potency
